In patent US20240132478A1, “COCRYSTAL” (Syndesi Therapeutics SA, priority 2020, published 2024):
Where two headings read alike, the source gives them in different places.

Key:
Type in all cases: physicochemical
[1] = Differential Scanning Calorimetry (DSC); conditions: for Melting point (onset): * = multiple thermal events; for DSC Endotherm, enthalpy / DSC Endotherm, onset temp: single endotherm; for DSC Endotherm, onset temp: followed by exothermic event
Description: TA Instruments Q2000: DSC data were collected on a TA Instruments Q2000 equipped with a 50 position auto sampler. Typically, 0.5 3 mg of each sample, in a pin-holed aluminium pan, was heated at 10° C./min from 25° C. to 235° C. A purge of dry nitrogen at 50 mlmL/min was maintained over the sample. The instrument control software was Advantage for Q Series and Thermal Advantage and the data were analysed using Universal Analysis or TRIOS.
TA Instruments Discovery DSC: DSC data were also collected on a TA Instruments Discovery DSC equipped with a 50 position auto-sampler. Typically, 0.5 3 mg of each sample, in a pin-holed aluminium pan, was heated at 10° C./min from 25° C. to 235° C. A purge of dry nitrogen at 50 mlmL/min was maintained over the sample. The instrument control software was TRIOS and the data were analysed using TRIOS or Universal Analysis.

[2] = Storage stability at elevated temperature and humidity (XRPD and HPLC purity after storage); conditions: for Stability at 25° C./97% RH and 40° C./75% RH: XRPD after storage; for XRPD after storage at 40° C./75% RH: 7 days; for Stability to increased temperature and humidity: in words, increased temperature (40° C.) and high humidity; for Storage: XRPD pattern: 40° C./75% RH, after 7 days
Description: Bruker AXS D8 Advance: XRPD diffractograms were collected on a Bruker D8 diffractometer using Cu Kα radiation (40 kV, 40 mA) and a θ-2θ goniometer fitted with a Ge monochromator. The incident beam passes through a 2.0 mm divergence slit followed by a 0.2 mm anti-scatter slit and knife edge. The diffracted beam passes through an 8.0 mm receiving slit with 2.5° Soller slits followed by the Lynxeye Detector. The software used for data collection and analysis was Diffrac Plus XRD Commander and Diffrac Plus EVA respectively. Samples were run under ambient conditions as flat plate specimens using powder as received. The sample was prepared on a polished, zero-background (510) silicon wafer by gently pressing onto the flat surface or packed into a cut cavity. The sample was rotated in its own plane. The details of the data collection method are: • Angular range: 2 to 42° 2θ • Step size: 0.05° 2θ • Collection time: 0.5 s/step (total collection time: 6.40 min)
Purity analysis was performed on an Agilent Ip 100/Infinity 111260 series system equipped with a diode array detector and using OpenLAB software. The full method details are provided below:
The three potential cocrystals were characterised using DSC, 1H NMR, TGA and by evaluating their stability with XRPD after 7 or 8 days of being stored at 40° C./75% RH. All three cocrystals were unchanged by XRPD after storage at 40° C./75% RH and none had significant amounts of solvent present (Table 28). The 4 HBA cocrystal appeared to have a similar melt to the starting material (ca. 85° C.). […] All initially appeared to have a 1:1 stoichiometry. […]

[3] = Gravimetric Vapour Sorption (GVS) moisture sorption isotherm; conditions: for GVS reversible water uptake: between 0-90% RH; for Hygroscopicity: in words, by GVS
Description: Sorption isotherms were obtained using a SMS DVS Intrinsic moisture sorption analyser, controlled by DVS Intrinsic Control software. The sample temperature was maintained at 25° C. by the instrument controls. The humidity was controlled by mixing streams of dry and wet nitrogen, with a total flow rate of 200 ml/min. The relative humidity was measured by a calibrated Rotronic probe (dynamic range of 1.0-100% RH), located near the sample. The weight change, (mass relaxation) of the sample as a function of % RH was constantly monitored by a microbalance (accuracy ±0.005 mg). Typically, 5-30 mg of sample was placed in a tared mesh stainless steel basket under ambient conditions. The sample was loaded and unloaded at 40% RH and 25° C. (typical room conditions). A moisture sorption isotherm was performed as outlined below (2 scans per complete cycle). The standard isotherm was performed at 25° C. at 10% RH intervals over a 0-90% RH range. Typically, a double cycle (4 scans) was carried out. Data analysis was carried out within Microsoft Excel using the DVS Analysis Suite.
The sample was recovered after completion of the isotherm and re-analysed by XRPD.

[4] = Thermo-Gravimetric Analysis (TGA)
Description: TA Instruments Discovery TGA: TGA data were collected on a TA Instruments Discovery TGA, equipped with a 25 position auto-sampler. Typically, 5 10 mg of each sample was loaded onto a pre-tared aluminium DSC pan and heated at 10° C./min from ambient temperature to 350° C. A nitrogen purge at 25 mlmL/min was maintained over the sample. The instrument control software was TRIOS and the data were analysed using Universal Analysis.

[5] = Storage stability at elevated temperature and humidity (XRPD and HPLC purity after storage)
[6] = Variable temperature XRPD (VT-XRPD)
Description: Non-ambient conditions: For variable temperature (VT-XRPD) experiments samples were mounted on an Anton Paar DHS 900 hot stage at ambient conditions. The sample was then heated to the appropriate temperature at 10° C./min and subsequently held isothermally for 2 minutes before data collection. Samples were prepared and analysed on a silicon wafer mounted to the hot stage using a heat-conducting paste.

Row | Compound | Melting point (onset) [1] | Stability at 25° C./97% RH and 40° C./75% RH [2] | Hygroscopicity (GVS) [3] | XRPD post-GVS [3] | GVS reversible water uptake [3] | Hygroscopicity [3] | XRPD after storage at 40° C./75% RH [2] | Stability to increased temperature and humidity [2] | VT-XRPD pattern on heating [6] | DSC Endotherm, enthalpy [1] | DSC Endotherm, onset temp [1] | Storage: XRPD pattern ([5]; 25° C./97% RH, after 7 days) | Storage: XRPD pattern [2] | VT-XRPD temperature at which sample melted [6] | other results
1 | O=C(O)c1cc(O)cc(O)c1.O=C1C[C@@H](c2cc(F)c(F)c(F)c2)CN1Cn1ncnc1Cl [ARP-1725-71-02C] | 113.3 °C | Stable, |  |  |  |  |  |  |  |  |  |  |  |  | 
2 | O=C(O)c1ccc(O)cc1.O=C1C[C@H](c2cc(F)c(F)c(F)c2)CN1Cn1ncnc1Cl [4-HBA Pattern 1] | 87.7° C.* | Stable, | Non-hygroscopic | RH, unchanged by XRPD post-GVS | ~0.11% w/w reversible water uptake between 0-90% | non-hygroscopic | 7 days: Unchanged | stable | XRPD pattern changes slightly on heating between 60 °C |  |  |  |  |  | TGA w/w loss ([4]; from 114-268° C., followed by continual decomposition): 29.0% w/w loss from 114-268 °C; DSC 1st Endotherm, enthalpy [1]: 8 J/g; DSC 1st Endotherm, onset temp [1]: 70.6 °C; DSC 2nd Endotherm, enthalpy [1]: 56 J/g; DSC 2nd Endotherm, onset temp [1]: 87.7 °C; DSC Broad exotherm, enthalpy [1]: 19 J/g; DSC Broad exotherm, onset temp [1]: 110 °C; Storage: Purity ([5]; 25° C./97% RH, 11 days): Purity: 99.9%; Storage: XRPD pattern ([5]; 25° C./97% RH, after 11 days): XRPD pattern unchanged after 11 days; Storage: Purity ([5]; 40° C./75% RH, 11 days): Purity: 99.7%; Storage: XRPD pattern ([5]; 40° C./75% RH, after 11 days): XRPD pattern unchanged after 11 days
3 | O=C(O)c1cc(O)cc(O)c1.O=C1C[C@H](c2cc(F)c(F)c(F)c2)CN1Cn1ncnc1Cl [3,5-DHBA Pattern 1] |  |  | Slightly hygroscopic | Unchanged by XRPD post-GVS | ~0.2% w/w reversible water uptake | only slightly hygroscopic | 7 days: Unchanged | remains stable | XRPD pattern remained unchanged until | 85 J/g | 113.3 °C | XRPD Pattern unchanged after 7 days | XRPD Pattern unchanged after 7 days | it melted at ca. 113 °C | TGA onset of dissociation/decomposition [4]: ca. 120 °C; Storage: Purity ([5]; 25° C./97% RH, 7 days): Purity: 99.9%; Storage: Purity ([5]; 40° C./75% RH, 7 days): Purity: 99.7%
4 | O=C(O)c1ccc(O)cc1O.O=C(O)c1ccc(O)cc1O.O=C1C[C@H](c2cc(F)c(F)c(F)c2)CN1Cn1ncnc1Cl [2,4-DHBA Pattern 1] | 138.2 °C | Stable, | Slightly hygroscopic | Some changes by XRPD post-GVS | 0.53% w/w reversible water uptake between 0-90% | only slightly hygroscopic |  | remains stable | XRPD pattern remained unchanged until the sample | 91 J/g | 138.2 °C | XRPD pattern unchanged after 7 days | XRPD pattern unchanged after 7 days | melted at ca. 139 °C | XRPD post-GVS ([3]; sample re-analysed by XRPD after isotherm): slight changes; TGA mass loss prior to dissociation/degradation [4]: No significant mass loss prior to dissociation/; TGA w/w loss on dissociation/degradation ([4]; followed by continual decomposition): degradation then 43.4% w/w loss followed by continual; Storage: Purity ([5]; 25° C./97% RH, after ca 1 month on storage): Purity: 99.7% (after ca 1 month on storage); Storage: Purity ([5]; 40° C./75% RH, after ca 1 month on storage): Purity: 97.9% (after ca 1 month on storage); XRPD after storage at 40° C./75% RH ([5]; 8 days): 8 days: Unchanged
